Assay results taken from PMC6683251, “Flavanol Bioavailability in Two Cocoa Products with Different Phenolic Content. A Comparative Study in Humans” (Nutrients, 2019).
Where “and” joins values, the source holds several entries; their conditions need not be identical. Equal entries are not always repeated. Where two headings read alike, the source gives them in different places.

Experiments:
[1] = Plasma nutrikinetics of flavanol metabolites after a single serving of soluble cocoa product (HPLC-ESI-QToF-MS); type: in vivo, human; conditions: for AUC: human plasma 0-8 h, read-out: AUC; for AUC / Tmax / Cmax: mean ± SD, n = 13; for Tmax / Cmax: human plasma; for Tmax: read-out: Tmax
Description: The study was carried out in thirteen healthy subjects (3 men and 10 women); the mens’ average age and body mass index were 26.67 ± 3.21 year and 22.47 ± 2.97 kg/m^2, respectively, and womens’ were 32.60 ± 9.85 year and 23.36 ± 3.73 kg/m^2, respectively. They were non-smoker, non-vegetarian, non-pregnant women, who were not taking any medication or nutritional supplements, and were not suffering from any chronic pathology or gastrointestinal disorder. The sample size was estimated attending to similar previous bioavailability studies. The volunteers gave their informed consent prior to participation.
(§1) The present randomized, single-blind study was carried out at the Human Nutrition Unit (HNU) of the Institute of Food Science, Technology and Nutrition (ICTAN). Volunteers attended the HNU on two days, separated by two weeks. Three days previous to each visit, participants were instructed not to consume cocoa products (chocolate, soluble cocoa, etc.), juices, tea, wine, grape must, oranges, tangerines, apples, grapes, strawberries or other berries, beets, onions, soybeans and soy derivatives. In addition, volunteers were asked to complete a 24 h food intake recall the day before they attended the HNU in order to monitor any possible food restriction incompliance.
On each intervention day, volunteers arrived at the HNU after an overnight fast. Prior to the intake of the soluble cocoa product, a nurse inserted a cannula in the cubital vein of the non-prevailing arm of the volunteers and blood samples were collected into EDTA-coated tubes at baseline (t = 0) and 0.5, 1, 2, 3, 4, 6, and 8 h after consuming the corresponding cocoa product. The soluble cocoa products, either 15 g of CC or 25 g CC-PP, were dissolved in 200 mL of semi-skimmed milk following manufacturer’s preparation instructions. Plasma was separated by centrifugation (10 min, 3000 rpm, 4 °C) and stored at −80 °C until further analysis. Urine samples were collected at different time intervals (t = −2–0, 0–4, 4–8, 8–12, and 12–24 h) in urine collection flasks that contained 0.5 g of ascorbic acid as preservative and were aliquoted and frozen at −20 °C until analysis. A polyphenol-free breakfast, lunch and afternoon snack were provided 2 h, 4 h, and 8 h after consumption of cocoa products, and water and isotonic beverages were available ad libitum.
A liquid–liquid extraction and protein precipitation with acetonitrile was used to isolate metabolites from plasma. A 1 mL defrosted plasma sample was mixed with 50 μL of ascorbic acid (0.2 g/mL). After vortexing the aqueous mixture, it was added drop wise to 750 μL of cold acetonitrile and vortexed for 2 min before centrifuging at 12,000 rpm for 10 min at 4 °C. The supernatant was separated, and the pellet was re-extracted twice more following the same procedure. Supernatants were combined and reduced to dryness under a stream of nitrogen at 30 °C. The dried samples were resuspended in 150 μL of aqueous formic acid (0.1%) containing 10% acetonitrile acidified with 0.1% formic acid and centrifuged at 4 °C for 20 min at 14,000 rpm. The final supernatant was collected, filtered (0.45 μm pore-size, cellulose-acetate membrane filters, Albet, Dassel (Germany)) and 30 μL were analyzed by high-performance liquid chromatography coupled to electrospray ionisation and quadrupole time-of-flight mass spectrometry (HPLC-ESI-QToF-MS).
Analyses were performed on an Agilent 1200 series LC system coupled to an Agilent 6530A Accurate-Mass Quadrupole Time-Of-Flight (Q-ToF) with ESI-Jet Stream Technology (Agilent Technologies). Compounds were separated on a reverse-phase Ascentis Express C18 (15 cm × 3 mm, […]) column (Sigma-Aldrich Química, Madrid) preceded by a Supelco 55215-U guard column at 30 °C. […]

[2] = Urinary excretion of flavanol metabolites (0-24 h) after a single serving of soluble cocoa product (HPLC-ESI-QToF-MS); type: in vivo, human; conditions: for Excreted in urine, Total: 24 h urine; for Excreted in urine, Total / Excreted in urine, 0–4 h / Excreted in urine, 4–8 h / Excreted in urine, 8–12 h / Excreted in urine, 12–24 h / Excreted in urine, Basal: mean ± SD, n = 13; for Excreted in urine, Basal: basal urine (−2–0 h, before intake)
Description: They were non-smoker, non-vegetarian, non-pregnant women, who were not taking any medication or nutritional supplements, and were not suffering from any chronic pathology or gastrointestinal disorder. The sample size was estimated attending to similar previous bioavailability studies. The volunteers gave their informed consent prior to participation.
as §1, with “derivatives.” for “derivatives. In addition, volunteers were asked to complete a 24 h food intake recall the day before they attended the HNU in order to monitor any possible food restriction incompliance.”
On each intervention day, volunteers arrived at the HNU after an overnight fast. […] The soluble cocoa products, either 15 g of CC or 25 g CC-PP, were dissolved in 200 mL of semi-skimmed milk following manufacturer’s preparation instructions. Plasma was separated by centrifugation (10 min, 3000 rpm, 4 °C) and stored at −80 °C until further analysis. […] A polyphenol-free breakfast, lunch and afternoon snack were provided 2 h, 4 h, and 8 h after consumption of cocoa products, and water and isotonic beverages were available ad libitum.
Urine samples were diluted with an equivalent volume of Milli-Q water (50%) and centrifuged at 14000 rpm (10 min, 4 °C). Supernatants were filtered (0.45 μm pore-size cellulose-acetate membrane filters) and a 5 µL aliquot was directly injected into the LC-ESI-QToF-MS equipment.
The test samples, either 30 μL of the plasma extract or 5 μL of diluted urine, were injected and separated using a mobile phase consisting of Milli-Q water (phase A) and acetonitrile (phase B), both containing 0.1% formic acid, at a flow rate of 0.3 mL/min. The mobile phase was initially programmed with 90% of solvent A and 10% of B. The elution program increased to 30% of solvent B in 10 min. Then, the initial conditions (10% solvent B) were recovered in 5 min and maintained for 5 min.
Due to the lack of standards for certain phase II metabolites, they were tentatively quantified using the calibration curves of their corresponding phenolic precursors. […] The rest of microbial metabolites identified, derivatives of hydroxyphenylpropionic, hydroxyphenylacetic, hydroxybenzoic and hippuric acids, were quantified using their respective commercially available standards. Urine concentration of the excreted metabolites was normalized by the volume excreted in each studied interval. […] Calibration curves were freshly prepared in a pool of both plasma and urine due to matrix effects.
Statistical analyses were carried out using the program SPSS (version 23.0, SPSS, Inc., IBM Company, New York, NY, USA). Significant differences between metabolites excreted in urine after consumption of CC and CC-PP cocoa products were evaluated based on non-parametric Wilcoxon test (p < 0.05). To determine the absorption and elimination of epicatechin metabolites after consumption of the soluble cocoa products, metabolite nutrikinetics were studied using the pharmacokinetic functions of Microsoft Excel, calculating the maximum concentration (Cmax), area under curve (AUC) and time to reach maximum concentration (Tmax). Data are expressed as mean ± standard deviation.

[3] = both sexes, oral, 19.8 mg, after CC (19.80 mg flavanols)
[4] = both sexes, oral, after CC-PP (68.25 mg flavanols)
[5] = both sexes, oral, after CC (15 g in 200 mL semi-skimmed milk, 19.80 mg flavanols), read-out: Cmax
[6] = both sexes, oral, after CC-PP (25 g in 200 mL semi-skimmed milk, 68.25 mg flavanols), read-out: Cmax
[7] = after CC-PP (68.25 mg flavanols)

Row | SMILES | AUC [1, 3] [nM·h] | Tmax [1, 3] [h] | AUC [1, 4] [nM·h] | Cmax [1, 5] [µM] | Tmax [1, 4] [h] | Cmax [1, 6] [µM] | Excreted in urine, Total ([2]; after CC (19.80 mg flavanols)) [µmol] | Excreted in urine, 0–4 h ([2]; after CC (19.80 mg flavanols)) | Excreted in urine, 4–8 h ([2]; after CC (19.80 mg flavanols)) [µmol] | Excreted in urine, 8–12 h ([2]; after CC (19.80 mg flavanols)) | Excreted in urine, 12–24 h ([2]; after CC (19.80 mg flavanols)) | Excreted in urine, Total [2, 7] | Excreted in urine, 0–4 h [2, 7] | Excreted in urine, 4–8 h [2, 7] [µmol] | Excreted in urine, 8–12 h [2, 7] | Excreted in urine, 12–24 h [2, 7] | Excreted in urine, Basal ([2]; CC intervention) | Excreted in urine, Basal ([2]; CC-PP intervention) | also measured
1 | COc1cc([C@H]2Oc3cc(O)cc(OS(=O)(=O)O)c3C[C@H]2O)ccc1O (single isomer, unassigned) [Epicatechin-methoxy-sulfate (isomer 1), Epicatechin-methoxy-sulfate] | 122 ± 25 | 1.3 ± 0.6 | 173 ± 107 | 0.031 ± 0.003 | 1.1 ± 0.6 | 0.041 ± 0.002 | 4.428 ± 0.800 | 2.717 ± 0.457 µmol | 1.300 ± 0.197 | 0.154 ± 0.031 µmol | 0.257 ± 0.114 µmol | 12.481 ± 2.243 µmol | 8.642 ± 1.434 µmol | 3.277 ± 0.644 | 0.330 ± 0.095 µmol | 0.232 ± 0.070 µmol |  |  | 
2 | O=C1CCC(Cc2cccc(OS(=O)(=O)O)c2)O1 (stereo not drawn) [PVL-3′-sulfate, 5-Phenyl-γ-valerolactone-3′-sulfate] |  | 4 to 6 | 161 ± 105 |  | 5.2 ± 2.2 | 0.039 ± 0.014 | 1.691 ± 0.802 | <L.Q. | 0.860 ± 0.385 | 0.456 ± 0.284 µmol | 0.375 ± 0.133 µmol | 7.8 µmol and 7.752 ± 2.868 µmol | 0.651 ± 0.389 µmol | 4.188 ± 1.535 | 1.223 ± 0.373 µmol | 1.690 ± 0.572 µmol | <L.Q. | <L.Q. | Cmax ([1]; after CC (15 g in 200 mL semi-skimmed milk, 19.80 mg flavanols)): traces level
3 | O=C1CCC(Cc2ccc(O)c(O)c2)O1 (stereo not drawn) [DHPVL, 5-(3′,4′-Dihydroxyphenyl)-γ-valerolactone] | 124 ± 73 | 6 ± 1.6 | 192 ± 29 | 0.035 ± 0.008 | 5.5 ± 1.4 | 0.037 ± 0.007 | 0.146 ± 0.032 | <L.Q. | 0.146 ± 0.032 | <L.Q. | <L.Q. | 1.084 ± 0.199 µmol | <L.Q. | 0.628 ± 0.087 | 0.174 ± 0.029 µmol | 0.282 ± 0.082 µmol | <L.Q. | <L.Q. | 
4 | Oc1cc(O)c2c(c1)O[C@H](c1ccc(O)c(O)c1)[C@H](O)[C@H]2c1c(O)cc(O)c2c1O[C@H](c1ccc(O)c(O)c1)[C@H](O)C2 [PB2 dimer, procyanidin B2] |  |  |  |  |  |  |  |  |  |  |  |  |  |  |  |  |  |  | Detection of un-metabolized compound in the collected biological fluids ([1]; plasma and urine, CC and CC-PP): Neither un-metabolized epicatechin and catechin nor procyanidins B1 and B2 were detected; Detection of un-metabolized compound in urine ([2]; any of the interventions (CC, CC-PP)): Neither epicatechin nor PB2 dimer was detected in urine
5 | O=C(O)C1OC(Oc2cc(C3Oc4cc(O)cc(O)c4CC3O)ccc2O)C(O)C(O)C1O (stereo not drawn) [Epicatechin-3′-glucuronide] | 72 ± 28 | 1.5 ± 0.5 | 110 ± 66 | 0.025 ± 0.001 | 1.4 ± 0.8 | 0.037 ± 0.001 | 0.622 ± 0.130 | 0.355 ± 0.071 µmol | 0.267 ± 0.059 | <L.Q. | <L.Q. | 1.653 ± 0.462 µmol | 0.958 ± 0.272 µmol | 0.695 ± 0.190 | <L.Q. | <L.Q. |  |  | 
6 | O=C1CCC(Cc2ccc(O)c(OC3OC(C(=O)O)C(O)C(O)C3O)c2)O1 (stereo not drawn) [HPVL-3′-glucuronide, 5-(4′-Hydroxyphenyl)-γ-valerolactone-3′-glucuronide] | 106 ± 21 | 5.6 ± 0.8 | 1430 ± 727 | 0.031 ± 0.004 | 5 ± 1.2 | 0.357 ± 0.2 | 0.600 ± 0.232 | <L.Q. | 0.497 ± 0.204 | 0.103 ± 0.028 µmol | <L.Q. | 2.358 ± 0.766 µmol | <L.Q. | 1.802 ± 0.567 | 0.274 ± 0.060 µmol | 0.282 ± 0.130 µmol | <L.Q. | <L.Q. | 
